Measured values reported in patent publication US20260306421A1, “SYSTEMS AND METHODS FOR TRANSDERMAN PATCH DELIVERY” (VITAMAX PATCH WHOLESALER LLC, priority 2022, published 2026).

Columns and labels:
[1] = Iron adhesive patch skin permeation and deposition; format: in vitro ADME, porcine; conditions: t-test p value, 0.5
Experimental: To perform the skin permeation studies, dermatomed skin (1 mm) was glued onto the receiver compartment of the Franz cell that contained 80:20 PG:water. A zero hour sample was taken from the receiver fluid, the patches were placed on top of the skin and held in place by a small weight (8.75 g). The patches that were tested were A2, A3, A4 (Table 16) as well as the existing commercial iron transdermal patch. After 24 hours, the receiver fluid was assayed using the quantitative iron assay and a compatible calibration in the same medium (80:20 PG:water) was used. The skin deposition was determined by removing the dermatomed skin from the donor compartment when the 24 h was completed, chopping into smaller pieces using scissors and incubating with the extraction fluid, ethanol. The samples were then transferred to Eppendorf tubes containing one stainless steel 5 mm bead and loaded into the TissuLyser II (Qiagen, Germany) for 30 min 30 Hz. The samples were centrifuged (5 min at 13,000 rpm) and supernatant assayed for iron content.

[2] = Solubility of iron chloride hexahydrate and iron complexes (visual / assayed); format: physicochemical; conditions: visual (*)
Experimental: Due to the high number of test samples (6 complexes plus the starting material, iron chloride hexahydrate) a visual solubility screen was used to screen the solubility in a range of solvents. […] Quantitative determination was performed by either incubating the complex in excess in the solvent using a shaking 37° C. water bath for 48 h or sonicating it for 2 hours at 40° C. or leaving overnight on a 50° C. hot plate. Once incubation period was completed, the exact solubility in a particular solvent was assayed (using the iron assay) after centrifugation (i.e. assay iron content in the supernatant using the Ferrozine® assay).

[3] = Iron complex adhesive compatibility and loading screen; format: physicochemical
Experimental: Pre-formulation studies were performed to determine the compatibility of the iron complexes with a range of transdermal patch adhesives (Table 15).
The compatibility of the complexes with the patch adhesives was assessed by mixing and visually checking the clarity of the mixture.
In the adhesives that were computable with the iron complexes the maximum drug loading of the complexes in the adhesive following solvent evaporation was determined. This was achieved by mixing the drug, adhesive and co-solvents until a clear solution was obtained at different drug:adhesive ratios and placing few drops of the mixture onto the patch backing sheet, leaving it to dry for 3-4 h, and examining the formed film on the surface of the backings for evidence of drug crystals.
Following complete drying of the solvents, the adhesive layer was covered by a release liner, compressed, and then cut using 34 mm circular manual die cutter (FIG. 23).

## O=c1cc(CO)occ1[O-].O=c1cc(CO)occ1[O-].O=c1cc(CO)occ1[O-].[Fe+3] [Iron kojic, iron kojic acid]
[1]
  deposition compared to existing commercial iron transdermal patch: no significant difference
[2]; Chloroform
  Solubility of complex (visual): <6 mg/mL Iron kojic*
[2]; Ethyl acetate
  Solubility of complex (visual): <6 mg/mL Iron kojic*
[2]; Glycerol
  Solubility of complex (visual): <6 mg/mL Iron kojic*
[2]; Hexane
  Solubility of complex (visual): <6 mg/mL Iron kojic*
[2]; Methanol
  Solubility of complex (visual): ≥18 mg/mL Iron kojic*
[2]; Oleic acid
  Solubility of complex (visual): <6 mg/mL Iron kojic*
[2]; PEG400
  Solubility of complex (visual): <6 mg/mL Iron kojic*
[2]; PG
  Solubility of complex (visual): ≥8 mg/mL Iron kojic*
[2]; Propanol
  Solubility of complex (visual): <6 mg/mL Iron kojic*
[2]; Transcutul
  Solubility of complex (visual): ≥ 8 mg/mL Iron kojic*
[2]; Triaceten
  Solubility of complex (visual): <6 mg/mL Iron kojic*
[3]
  compatibility with adhesives: only compatible with DURO-TAK 9301
[3]; drug loading 4%, 2 mg PG
  Solubility in DURO-TAK 9301 patch: Clear
[3]; drug loading 4%, no permeation enhancer
  Solubility in DURO-TAK 9301 patch: Clear
[3]; drug loading 7%, 8 mg Maltol
  Solubility in DURO-TAK 9301 patch: Precipitated
[3]; drug loading 7.5%, 4 mg PG
  Solubility in DURO-TAK 9301 patch: Precipitated
[3]; drug loading 8%, no permeation enhancer
  Solubility in DURO-TAK 9301 patch: Precipitated
[3]; drug loading 10%, 5.5 mg PG
  Solubility in DURO-TAK 9301 patch: Precipitated
[3]; drug loading 10%, 5.5 mg Transcutol
  Solubility in DURO-TAK 9301 patch: Precipitated
[3]; drug loading 10%, no permeation enhancer
  Solubility in DURO-TAK 9301 patch: Precipitated
[3]; methanol stock solution 10 mg/mL
  (maximum) complex loading achieved in adhesive: 4%
[3]; methanol stock solution 18 mg/mL
  complex loading achieved in adhesive patch: 8.5%
